US20230061608A1, “SUBSTITUTED QUINOLINONYL PIPERAZINE COMPOUNDS USEFUL AS T CELL ACTIVATORS” (BRISTOL-MYERS SQUIBB COMPANY, priority 2019, published 2023)

What was measured:
DGKζ = biological target: T1, DGKζ (Homo sapiens, UniProt Q13574); assay: In vitro DGK inhibition assay, DGKζ LIPGLO (extruded liposomes); type: biochemical; conditions: liposome (LIPGLO) assay, 150 μM ATP, 5 nM enzyme
T1 construct: Full length human DGKα and DGKζ, each expressed containing a TVMV-cleavable C-terminal Hexa-His tag; made in house; host or cells: Sf9 insect cells, baculovirus (Bac-to-Bac)
Description: (§1) Assay 1: In vitro DGK Inhibition Assays—Method A
(§2) The DGKα and DGKζ reactions were performed using extruded liposomes (DGKα and DGKζ LIPGLO assays). The reactions were carried out in 50 mM MOPS pH 7.5, 100 mM NaCl, 10 mM MgCl2, 1 μM CaCl2), and 1 mM DTT (assay buffer). The lipid substrate concentrations were 2 mM PS, 0.25 mM DAG, and 2.75 mM PC for the extruded liposome reactions. The reactions were carried out in 150 μM ATP. The enzyme concentrations for the DGKα and DGKζ were 5 nM.
(§3) The compound inhibition studies were carried out as follows: 50 nL droplets of each test compound (top concentration 10 mM with 11 point, 3-fold dilution series for each compound) solubilized in DMSO were transferred to wells of a white 1536 well plate (Corning 3725). A 5 mL enzyme/substrate solution at 2× final reaction concentration was prepared by combining 2.5 mL 4× enzyme solution (20 nM DGKα or DGKζ (prepared as described below) in assay buffer) and 2.5 mL of 4× liposome solution (compositions described below) and incubated at room temperature for 10 minutes. Next, 1 μL 2× enzyme/substrate solution was added to wells containing the test compound and reactions were initiated with the addition of 1 μL 300 uM ATP. The reactions were allowed to proceed for 1 hr, after which 2 μL Glo Reagent (Promega V9101) was added and incubated for 40 minutes. Next, 4 μL Kinase Detection Reagent was added and incubated for 30 minutes. Luminescence was recorded using an EnVision microplate reader. The percent inhibition was calculated from the ATP conversion generated by no enzyme control reactions for 100% inhibition and vehicle-only reactions for 0% inhibition. The compounds were evaluated at 11 concentrations to determine IC50.
(§4) The lipid composition was 5 mol % DAG (Avanti 8008110), 40 mol % PS (Avanti 840035P), and 55 mol % PC (Avanti 850457) at a total lipid concentration of 15.2 mg/mL for the 4× liposome solution. The PC, DAG, and PS were dissolved in chloroform, combined, and dried in vacuo to a thin film. The lipids were hydrated to 20 mM in 50 mM MOPS pH 7.5, 100 mM NaCl, 5 mM MgCl2, and were freeze-thawed five times. The lipid suspension was extruded through a 100 nm polycarbonate filter eleven times. Dynamic light scattering was carried out to confirm liposome size (50-60 nm radius). The liposome preparation was stored at 4° C. for as long as four weeks.
(§5) Human DGK-alpha-TVMV-His-pFBgate and human DGK-zeta-transcript variant-2-TVMV-His-pFBgate baculovirus samples were generated using the Bac-to-Bac baculovirus expression system (Invitrogen) according to the manufacturer's protocol. The DNA used for expression of DGK-alpha and DGK-zeta have SEQ ID NOs: 1 and 3, respectively. Baculovirus amplification was achieved using infected Sf9 cells at 1:1500 virus/cell ratios, and grown for 65 hours at 27° C. post-transfection.
(§6) Full length human DGKα and DGKζ, each expressed containing a TVMV-cleavable C-terminal Hexa-His tag sequence (SEQ ID NOs: 2 and 4, respectively) and produced as described above, were purified from Sf9 baculovirus-infected insect cell paste. The cells were lysed using nitrogen cavitation method with a nitrogen bomb (Parr Instruments), and the lysates were clarified by centrifugation. The clarified lysates were purified to ˜90% homogeneity, using three successive column chromatography steps on an ÄKTA Purifier Plus system. The three steps column chromatography included nickel affinity resin capture (i.e. HisTrap FF crude, GE Healthcare), followed by size exclusion chromatography (i.e. HiLoad 26/600 Superdex 200 prep grade, GE Healthcare for DGK-alpha, and HiPrep 26/600 Sephacryl S 300_HR, GE Healthcare for DGK-zeta). The third step was ion exchange chromatography, and differed for the two isoforms. DGKα was polished using Q-Sepharose anion exchange chromatography (GE Healthcare). DGKζ was polished using SP Sepharose cation exchange chromatography (GE Healthcare). The proteins were delivered at concentrations of ≥2 mg/mL. […]

DGKα = biological target: T2, DGKα (Homo sapiens, UniProt P23743); assay: In vitro DGK inhibition assay, DGKα LIPGLO (extruded liposomes); type: biochemical; conditions: liposome (LIPGLO) assay, 150 μM ATP, 5 nM enzyme
T2 construct: made in house; host or cells: Sf9 insect cells, baculovirus (Bac-to-Bac)
Description: as §1, §2, §3, §4, §5, §6

T2 sequence (P23743 whole entry): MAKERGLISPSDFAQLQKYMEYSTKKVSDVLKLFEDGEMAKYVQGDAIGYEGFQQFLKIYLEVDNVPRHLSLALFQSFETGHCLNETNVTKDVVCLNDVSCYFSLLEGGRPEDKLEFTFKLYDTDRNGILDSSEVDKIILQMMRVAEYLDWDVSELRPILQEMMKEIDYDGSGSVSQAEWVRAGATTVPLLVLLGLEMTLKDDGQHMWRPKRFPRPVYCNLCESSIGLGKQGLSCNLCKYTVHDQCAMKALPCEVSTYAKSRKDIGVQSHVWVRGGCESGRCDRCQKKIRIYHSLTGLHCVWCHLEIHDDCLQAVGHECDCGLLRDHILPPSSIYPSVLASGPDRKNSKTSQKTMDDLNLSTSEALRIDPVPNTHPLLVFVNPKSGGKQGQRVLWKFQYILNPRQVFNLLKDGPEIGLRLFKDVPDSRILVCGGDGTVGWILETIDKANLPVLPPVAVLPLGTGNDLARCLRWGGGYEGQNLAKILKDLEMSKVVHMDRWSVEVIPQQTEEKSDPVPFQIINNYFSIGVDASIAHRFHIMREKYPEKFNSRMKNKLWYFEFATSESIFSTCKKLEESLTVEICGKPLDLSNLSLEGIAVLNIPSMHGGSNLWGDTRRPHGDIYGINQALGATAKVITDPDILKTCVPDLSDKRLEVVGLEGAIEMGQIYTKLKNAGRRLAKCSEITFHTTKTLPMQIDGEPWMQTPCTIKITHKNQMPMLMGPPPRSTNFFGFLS
T1 sequence (Q13574 1-929 isoform Q13574-4): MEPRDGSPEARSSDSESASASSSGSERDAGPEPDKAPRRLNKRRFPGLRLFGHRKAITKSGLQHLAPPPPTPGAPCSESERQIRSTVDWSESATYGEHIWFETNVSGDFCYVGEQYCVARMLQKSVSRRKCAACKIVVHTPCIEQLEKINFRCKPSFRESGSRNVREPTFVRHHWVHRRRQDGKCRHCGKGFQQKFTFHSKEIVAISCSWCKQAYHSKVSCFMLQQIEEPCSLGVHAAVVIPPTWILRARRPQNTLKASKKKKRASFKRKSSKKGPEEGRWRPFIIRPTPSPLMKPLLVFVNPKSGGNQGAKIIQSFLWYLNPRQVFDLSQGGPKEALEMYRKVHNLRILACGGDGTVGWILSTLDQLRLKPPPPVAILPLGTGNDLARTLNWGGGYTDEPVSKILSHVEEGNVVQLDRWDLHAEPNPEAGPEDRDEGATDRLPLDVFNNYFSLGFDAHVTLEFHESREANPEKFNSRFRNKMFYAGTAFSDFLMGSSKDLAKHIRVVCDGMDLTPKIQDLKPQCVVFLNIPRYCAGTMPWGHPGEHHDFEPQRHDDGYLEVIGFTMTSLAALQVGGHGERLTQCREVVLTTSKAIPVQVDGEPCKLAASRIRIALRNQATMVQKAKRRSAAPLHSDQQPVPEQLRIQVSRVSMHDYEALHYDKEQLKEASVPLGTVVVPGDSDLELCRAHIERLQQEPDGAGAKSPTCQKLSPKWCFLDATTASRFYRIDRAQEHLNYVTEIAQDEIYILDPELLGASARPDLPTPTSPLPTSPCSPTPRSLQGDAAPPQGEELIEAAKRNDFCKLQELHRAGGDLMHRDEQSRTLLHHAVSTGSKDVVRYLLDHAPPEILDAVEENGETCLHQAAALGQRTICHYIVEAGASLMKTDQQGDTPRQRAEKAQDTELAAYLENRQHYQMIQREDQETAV

Row | Structure (SMILES) | IC50 (DGKζ) [µM] | IC50 (DGKα) [µM]
1 | C[C@@H]1CN(c2c(C#N)c(=O)n(C)c3ccccc23)[C@@H](C)CN1C(c1ccc(F)cc1)c1ccc(F)cc1 (stereo in doubt) [Example 6, 4-[(2S,5R)-4-[bis(4-fluorophenyl)methyl]-2,5-dimethylpiperazin-1-yl]-1-methyl-2-oxo-1,2-dihydroquinoline-3-carbonitrile] | > 27 | 0.7
2 | Cn1c(=O)c(CO)c(N2CCN(C(c3ccccc3)c3ccccc3)CC2)c2ccccc21 [Example 11, 4-[4-(diphenylmethyl)piperazin-1-yl]-3-(hydroxymethyl)-1-methyl-1,2-dihydroquinolin-2-one] | > 240 | 90
3 | C[C@@H]1CN(c2cc(=O)n(C)c3ccc(C#N)cc23)[C@@H](C)CN1C(c1ccc(F)cc1)c1ccc(F)cc1 (stereo in doubt) [Example 7, 4-[(2S,5R)-4-[bis(4-fluorophenyl)methyl]-2,5-dimethylpiperazin-1-yl]-1-methyl-2-oxo-1,2-dihydroquinoline-6-carbonitrile] | > 250 | 1.3
4 | Cn1c(=O)c([N+](=O)[O-])c(N2CCN(Cc3cccc(F)c3)CC2)c2cc(F)ccc21 [Example 1, 6-fluoro-4-{4-[(3-fluorophenyl)methyl]piperazin-1-yl}-1-methyl-3-nitro-1,2-dihydroquinolin-2-one] | 41 | 0.0073
5 | Cc1cc(F)cc(CN2CCN(c3c(-c4ccncc4)c(=O)n(C)c4ccc(F)cc34)CC2)c1 [Example 2, 6-fluoro-4-{4-[(3-fluoro-5-methylphenyl)methyl]piperazin-1-yl}-1-methyl-3-(pyridin-4-yl)-1,2-dihydroquinolin-2-one] | 35 | 0.051
6 | CCn1ccc2c(CN3CCN(c4c([N+](=O)[O-])c(=O)n(C)c5ccc(F)cc45)CC3)cccc21 [Example 4, 4-{4-[(1-ethyl-1H-indol-4-yl)methyl]piperazin-1-yl}-6-fluoro-1-methyl-3-nitro-1,2-dihydroquinolin-2-one] | 7.9 | 0.15
7 | COc1ccc2c(c1)c(N1CCN(Cc3cccc4ccccc34)CC1)c([N+](=O)[O-])c(=O)n2C [Example 8, 6-methoxy-1-methyl-4-{4-[(naphthalen-1-yl)methyl]piperazin-1-yl}-3-nitro-1,2-dihydroquinolin-2-one] | 82 | 39
8 | Cn1c(=O)c([N+](=O)[O-])c(N2CCN(Cc3ccccc3)C(=O)C2)c2cc(F)ccc21 [Example 5, 4-(4-benzyl-3-oxopiperazin-1-yl)-6-fluoro-1-methyl-3-nitro-1,2-dihydroquinolin-2-one] | > 240 | 0.5
